pIC50: −log10 of the molar value. Where two headings read alike, the source gives them in different places.
What was measured:
[1] = test system: thoracic aorta from male Sprague-Dawley rats; test: Vasodilating activity in vitro (relaxation of norepinephrine-contracted aortic strips); parameters: species or system rat (male Sprague-Dawley); details: rat aorta helical strips contracted by 3.2×10^-8 g/ml norepinephrine, 37° C.
Method: The thoracic aorta from male Sprague-Dawley rats, aged 9-11 weeks, were removed and cut into helical strips after removal of excess fat and connective tissues. The strips were mounted vertically in organ baths containing 25 ml Tyrode solution and isometric tension was measured. The tissue bath solution was maintained at 37° C. and bubbled with a 95% O2 and 5% CO2 gas mixture. After the resting tension was adjusted to 0.5 g, the strips were contracted by 3.2×10^-8 g/ml of norepinephrine (NE). The test compound dissolved in ethanol, polyethylene glycol and distilled water (1:1:2) were added to the organ bath cumulatively.
Then, relaxative activity of test compound was expressed as IC50 value i.e. concentration required to inhibit the contraction response by 50%.

[2] = test system: Mean Arterial Blood Pressure in Anesthetized Rats; test: Effect on mean arterial blood pressure in anesthetized rats (intravenous); type: in vivo, rat (male Sprague-Dawley); details: for inhibition in vivo at 0.1 mg/kg / inhibition in vivo at 0.32 mg/kg / inhibition in vivo at 0.032 mg/kg: Rattus norvegicus, iv, maximal % decrease of mean blood pressure, read-out: Hypotensive effect R max; for Hypotensive effect T 1/2: i.v., time to recover to half of maximal decrease
Method: Male Sprague-Dawley rats, aged 9-12 weeks, were anesthetized with urethane (1.4 g/kg i.p.). A polyethylene cannula filled with heparin solution was inserted into the femoral artery of the rats to measure mean blood pressure. Mean blood pressure was measured with a pressure transducer and recorded on a polygraph. The test compound dissolved in ethanol, polyethylene glycol and distilled water (1:1:2), were administered intraveneously in a volume of 0.25 ml/kg. Intravenous hypothypotensive effects of each compound were expressed as the maximal decrease (R max) and the half time (T 1/2). Briefly, R max was expressed as maximal % change compared to mean blood pressure prior to the administration of compound. T 1/2 was expressed as a time during which the hypotensive effect recovered to half of the maximal decrease.

[3] = test system: human platelet aggregation; test: Inhibition of human platelet aggregation (anti-platelet aggregation activity); type: cell-based; details: human PRP, concentration required to inhibit aggregation by 50%, read-out: ED50 (the source's name)
Method: Inhibitory activity of the nitro compounds of this invention against human platelet aggregation was measured according to the method described below.
Blood was collected from human volunteers. The blood was prevented from coagulation with 1 volume of 3.8% sodium citrate to 9 volumes of blood. Platelet rich plasma (PRP) was prepared by centrifugation of the blood at 1300 rpm for 10 min. at 10° C. The PRP was diluted with platelet poor plasma obtained by further centrifugation of the blood at 3000 rpm for 10 min. The platelet counts in the PRP used for aggregation studies were about 4.0×10^5 platelets/mm^3. Aggregation studies were performed turbidimetrically using NKK HEMATRACER 1. To 225 μl of PRP 25 μl of the test compounds was added and preincubated for 2 min. After preincubation 5 μl of aggregating agents were added to the mixture. Collagen and ADP were used as aggregating agents at the concentrations of 0.5 μg/ml and 2.5 μM, respectively. Activities of the test compounds were expressed as ED50 values i.e. concentrations required to inhibit the platelet aggregation responses by 50%.

[4] = test system: Mean Arterial Blood Pressure in Conscious Rats; test: Effect on mean arterial blood pressure in conscious rats (oral); type: in vivo, rat (male Sprague-Dawley); details: for Hypotensive effect Dur.: time to recover to 5% of maximal decrease; for Hypotensive effect T 1/2: time to recover to half of maximal decrease; for inhibition in vivo at 3.2 mg/kg / inhibition in vivo at 10 mg/kg / inhibition in vivo at 32 mg/kg: Rattus norvegicus, po, maximal % decrease of mean blood pressure, read-out: Hypotensive effect R max
Method: Male Sprague-Dawley rats, aged 9-11 weeks, were anesthetized with ether and a polyethylene cannula filled with heparin solution was inserted into the femoral artery of the rats to measure mean blood pressure. Mean blood pressure was measured with a pressure transducer and recorded on a polygraph. Two hours after operation, the drug suspended in 0.5% methyl cellulose was administered orally in a volume of 5 ml/kg. Oral hypotensive effects of each compound were expressed as the maximal decrease (R max), the half time (T 1/2) and the duration (Dur.). Briefly, R max was expressed as maximal % change compared to mean blood pressure prior to the administration of compound. T 1/2 was expressed as a time during which the hypotensive effect recovered to half of the maximal decrease. Duration was expressed as a time during which the hypotensive effect recovered to 5% of the maximal decrease.

[5] = Homo sapiens, Platelet, Inducer: ADP 2.5 μM

## CCC(=CC(COC(=O)c1cccnc1)=NO)C(C)[N+](=O)[O-] (single isomer, unassigned) [Example 1 A, 4-ethyl-2-hydroxyimino-5-nitro-3-hexen-1-yl 3-pyridinecarboxylate]
[1]; Rattus norvegicus
  pIC50: 4.80
[2]; 0.1 mg/kg
  inhibition in vivo at 0.1 mg/kg: 21.7%
[2]; 0.32 mg/kg
  inhibition in vivo at 0.32 mg/kg: 37%

## CCC(=CC(COC(=O)c1cccnc1)=NO)C(C)[N+](=O)[O-] (single isomer, unassigned) [Example 1 B, 4-ethyl-2-hydroxyimino-5-nitro-3-hexen-1-yl 3-pyridinecarboxylate]
[1]
  pIC50: 5.00
[2]; 0.032 mg/kg
  inhibition in vivo at 0.032 mg/kg: 11.8%

## CCC(=CC(COC(N)=O)=NO)C(C)[N+](=O)[O-] (single isomer, unassigned) [Example 2 A, 4-Ethyl-2-hydroxyimino-5-nitro-3-hexen-1-yl carbamate]
[3]; Homo sapiens, Platelet, Inducer: Collagen 0.5 μg/ml
  pIC50: 5.34
[3]; Inducer: ADP 2.5 μM
  pIC50: 5.07

## CCC(=CC(COC(N)=O)=NO)C(C)[N+](=O)[O-] (single isomer, unassigned) [Example 2 B, 4-Ethyl-2-hydroxyimino-5-nitro-3-hexen-1-yl carbamate]
[3]; Inducer: ADP 2.5 μM
  pIC50: 5.62
[3]; Inducer: Collagen 0.5 μg/ml
  pIC50: 5.44
[1]; Rattus norvegicus
  pIC50: 4.95
[2]; 0.032 mg/kg
  inhibition in vivo at 0.032 mg/kg: 30.9%
  Hypotensive effect T 1/2: 5.3 min
[2]; 0.1 mg/kg
  inhibition in vivo at 0.1 mg/kg: 35.4%
  Hypotensive effect T 1/2: 7.3 min

## CCNC(=O)OCC(C=C(CC)C(C)[N+](=O)[O-])=NO (single isomer, unassigned) [Example 3 A, 4-Ethyl-2-hydroxyimino-5-nitro-3-hexen-1-yl ethylcarbamate]
[1]; Rattus norvegicus
  pIC50: 4.73
[2]; 0.032 mg/kg
  inhibition in vivo at 0.032 mg/kg: 12.6%
  Hypotensive effect T 1/2: 4.8 min
[2]; 0.1 mg/kg
  inhibition in vivo at 0.1 mg/kg: 29.3%
  Hypotensive effect T 1/2: 7.2 min

## CCC(=CC(CN1C(=O)c2ccccc2C1=O)=NO)C(C)[N+](=O)[O-] (single isomer, unassigned) [Example 4 A, N-(4-Ethyl-2-hydroxyimino-5-nitro-3-hexen-1-yl)-phthalimide]
[1]; Rattus norvegicus
  pIC50: 5.92
[2]; 0.1 mg/kg
  inhibition in vivo at 0.1 mg/kg: 24.6%
  Hypotensive effect T 1/2: 6.7 min
[2]; 0.32 mg/kg
  inhibition in vivo at 0.32 mg/kg: 40.8%
  Hypotensive effect T 1/2: 5.1 min

## CCC(=CC(CN1C(=O)c2ccccc2C1=O)=NO)C(C)[N+](=O)[O-] (single isomer, unassigned) [Example 4 B, N-(4-Ethyl-2-hydroxyimino-5-nitro-3-hexen-1-yl)-phthalimide]
[1]
  pIC50: 5.74

## CCC(=CC(CNC(C)=O)=NO)C(C)[N+](=O)[O-] (single isomer, unassigned) [Example 5 A, 1-Acetylamino-4-ethyl-2-hydroxyimino-5-nitro-3-hexene]
[3]; [5]
  pIC50: 5.29
[4]; 3.2 mg/kg
  Hypotensive effect Dur.: 30.8 min
  Hypotensive effect T 1/2: 16 min
  inhibition in vivo at 3.2 mg/kg: 27.2%
[4]; 10 mg/kg
  Hypotensive effect Dur.: 83.9 min
  Hypotensive effect T 1/2: 25 min
  inhibition in vivo at 10 mg/kg: 54.4%
[4]; 32 mg/kg
  Hypotensive effect Dur.: 144.2 min
  Hypotensive effect T 1/2: 75.6 min
  inhibition in vivo at 32 mg/kg: 60.6%
[1]; Rattus norvegicus
  pIC50: 4.33
[2]; 0.32 mg/kg
  inhibition in vivo at 0.32 mg/kg: 49.9%
  Hypotensive effect T 1/2: 12.8 min
[2]; 0.1 mg/kg
  Hypotensive effect T 1/2: 7.6 min

## CCC(=CC(CNC(C)=O)=NO)C(C)[N+](=O)[O-] (single isomer, unassigned) [Example 5 B, 1-Acetylamino-4-ethyl-2-hydroxyimino-5-nitro-3-hexene]
[1]
  pIC50: 4.05
[2]; 0.1 mg/kg
  inhibition in vivo at 0.1 mg/kg: 34.3%
  Hypotensive effect T 1/2: 6.2 min

## CCC(=CC(CNS(=O)(=O)N(C)C)=NO)C(C)[N+](=O)[O-] (single isomer, unassigned) [Example 7 A, N,N-Dimethyl-N'-(4-ethyl-2-hydroxyimino-5-nitro-3-hexen-1-yl)sulfamide]
[1]; Rattus norvegicus
  pIC50: 4.97
[2]; 0.1 mg/kg
  inhibition in vivo at 0.1 mg/kg: 31.7%
  Hypotensive effect T 1/2: 7.6 min
[2]; 0.32 mg/kg
  inhibition in vivo at 0.32 mg/kg: 42.1%
  Hypotensive effect T 1/2: 5.1 min

## CCC(=CC(CNS(=O)(=O)N(C)C)=NO)C(C)[N+](=O)[O-] (single isomer, unassigned) [Example 7 B, N,N-Dimethyl-N'-(4-ethyl-2-hydroxyimino-5-nitro-3-hexen-1-yl)sulfamide]
[1]
  pIC50: 4.71
[2]; 0.1 mg/kg
  Hypotensive effect T 1/2: 6.6 min

## CCC(=CC(CSc1nnnn1C)=NO)C(C)[N+](=O)[O-] (single isomer, unassigned) [Example 12 A, 1-Methyl-5-(4-ethyl-2-hydroxyimino-5-nitro-3-hexen-1-yl)thiotetrazole]
[3]; [5]
  pIC50: 5.96
[1]; Rattus norvegicus
  pIC50: 5.31
[2]; 0.032 mg/kg
  inhibition in vivo at 0.032 mg/kg: 16.7%
  Hypotensive effect T 1/2: 7.4 min
[2]; 0.1 mg/kg
  inhibition in vivo at 0.1 mg/kg: 37.7%
  Hypotensive effect T 1/2: 5.9 min

## CCC(=CC(CSc1nnnn1C)=NO)C(C)[N+](=O)[O-] (single isomer, unassigned) [Example 12 B, 1-Methyl-5-(4-ethyl-2-hydroxyimino-5-nitro-3-hexen-1-yl)thiotetrazole]
[3]; Inducer: ADP 2.5 μM
  pIC50: 5.77
[1]
  pIC50: 5.30

## CCC(=CC(CSc1nc2ccccc2s1)=NO)C(C)[N+](=O)[O-] (single isomer, unassigned) [Example 14 B, 2-(4-Ethyl-2-hydroxyimino-5-nitro-3-hexen-1-yl)thio-benzothiazole]
[1]; Rattus norvegicus
  pIC50: 6.96
[2]; 0.032 mg/kg
  inhibition in vivo at 0.032 mg/kg: 4.7%
[2]; 0.1 mg/kg
  inhibition in vivo at 0.1 mg/kg: 33.9%

## CCC(=CC(CNC(=O)c1cccnc1)=NO)C(C)[N+](=O)[O-] (stereo not shown) [Example 6 A]
[3]; [5]
  pIC50: 5.74
[4]; 3.2 mg/kg
  Hypotensive effect Dur.: 29.3 min
  Hypotensive effect T 1/2: 20 min
  inhibition in vivo at 3.2 mg/kg: 22.3%
[4]; 10 mg/kg
  Hypotensive effect Dur.: 116.0 min
  Hypotensive effect T 1/2: 30 min
  inhibition in vivo at 10 mg/kg: 27.2%
[4]; 32 mg/kg
  Hypotensive effect Dur.: > 300 min
  Hypotensive effect T 1/2: 117 min
  inhibition in vivo at 32 mg/kg: 29.6%
[1]
  pIC50: 4.60
[2]; 0.1 mg/kg
  inhibition in vivo at 0.1 mg/kg: 16.9%
  Hypotensive effect T 1/2: 6.8 min
[2]; 0.32 mg/kg
  inhibition in vivo at 0.32 mg/kg: 36.3%
  Hypotensive effect T 1/2: 11.2 min

## CCC(=CC(CNC(=O)c1ccc(C)nc1)=NO)C(C)[N+](=O)[O-] (stereo not shown) [Example 35, N-(4-Ethyl-2-hydroxyimino-5-nitro-3-hexen-1-yl)-6-methyl-3-pyridinecarboxamide]
[4]; 10 mg/kg
  Hypotensive effect T 1/2: 24.1 min
  inhibition in vivo at 10 mg/kg: 31.1%
[2]; 0.32 mg/kg
  inhibition in vivo at 0.32 mg/kg: 41.7%
  Hypotensive effect T 1/2: 13.7 min
